{
  "source": "paper PMC2759687",
  "about": "(Journal of medicinal chemistry, 2009)",
  "experiment_in_all_cases": "Mean activity",
  "format_in_all_cases": "cell-based",
  "key": {"Gram-negative bacteria": {"system": "Gram-negative bacteria", "settings": "geometric mean of MIC values (after 24 h) against 7 Gram-negative strains"}, "fungi": {"system": "fungi", "settings": "geometric mean of MIC values (after 24 h) against 2 fungal strains"}, "Gram-positive bacteria": {"system": "Gram-positive bacteria", "settings": "geometric mean of MIC values (after 24 h) against 7 Gram-positive strains"}},
  "note": "Square brackets hold non-standard residues; d marks the D form. Peptide text beside a SMILES is read from it. Orn = NCCC[C@H](N)C(=O)O",
  "data": [
    {"smiles": "CC(C)C[C@@H]1NC(=O)[C@H](CCCN)NC(=O)[C@H](C(C)C)NC(=O)[C@@H]2CCCN2C(=O)[C@@H](Cc2ccccc2)NC(=O)[C@H](CC(C)C)NC(=O)[C@H](CCCN)NC(=O)[C@H](C(C)C)NC(=O)[C@@H]2CCCN2C(=O)[C@@H](Cc2ccccc2)NC1=O", "note": "[GS, gramicidin S] (cyclo(V[Orn]L[dF]PV[Orn]L[dF]P))", "values": [
      {"measurement": "Mean Activity, Gram-negative bacteria", "setting": "Gram-negative bacteria", "value": 23.8, "unit": "µg/mL"},
      {"measurement": "Mean activity, fungi", "setting": "fungi", "value": 2.8, "unit": "µg/mL"},
      {"measurement": "Mean activity, Gram-positive bacteria", "setting": "Gram-positive bacteria", "value": 1.4, "unit": "µg/mL"}
    ]}
  ]
}
